The subject of one data set is 22Rv1. The experiment in a line: IncuCyte % confluence cell growth inhibition, 22Rv1. The data set is classed as cell-based. To be noted: Homo sapiens, 22Rv1, read-out: IC50 values (μM), 22Rv1. On the procedure: (§1) Images were then analyzed to discern the % confluence of cells in each well. IC50 values were calculated from dose response curves of the % cell growth inhibition relative to DMSO control at the same time point per each cell line.

In the next data set the test system is DU145. The experiment in a line: IncuCyte % confluence cell growth inhibition, DU145. It is filed as cell-based. The note with it: Homo sapiens, DU-145, read-out: IC50 values (μM), DU145. On the procedure: as §1
The test system of the next data set is LNCaP ARin vivo. The experiment in a line: IncuCyte % confluence cell growth inhibition, LNCaP ARin vivo. It is filed as cell-based. To be noted: Homo sapiens, read-out: IC50 values (μM), LNCaP ARin vivo. On the procedure: as §1
The target in the next data set is T1, AR (Homo sapiens, UniProt P10275).
T1 construct: host or cells: HEK 293T
T1 sequence (P10275 1-920): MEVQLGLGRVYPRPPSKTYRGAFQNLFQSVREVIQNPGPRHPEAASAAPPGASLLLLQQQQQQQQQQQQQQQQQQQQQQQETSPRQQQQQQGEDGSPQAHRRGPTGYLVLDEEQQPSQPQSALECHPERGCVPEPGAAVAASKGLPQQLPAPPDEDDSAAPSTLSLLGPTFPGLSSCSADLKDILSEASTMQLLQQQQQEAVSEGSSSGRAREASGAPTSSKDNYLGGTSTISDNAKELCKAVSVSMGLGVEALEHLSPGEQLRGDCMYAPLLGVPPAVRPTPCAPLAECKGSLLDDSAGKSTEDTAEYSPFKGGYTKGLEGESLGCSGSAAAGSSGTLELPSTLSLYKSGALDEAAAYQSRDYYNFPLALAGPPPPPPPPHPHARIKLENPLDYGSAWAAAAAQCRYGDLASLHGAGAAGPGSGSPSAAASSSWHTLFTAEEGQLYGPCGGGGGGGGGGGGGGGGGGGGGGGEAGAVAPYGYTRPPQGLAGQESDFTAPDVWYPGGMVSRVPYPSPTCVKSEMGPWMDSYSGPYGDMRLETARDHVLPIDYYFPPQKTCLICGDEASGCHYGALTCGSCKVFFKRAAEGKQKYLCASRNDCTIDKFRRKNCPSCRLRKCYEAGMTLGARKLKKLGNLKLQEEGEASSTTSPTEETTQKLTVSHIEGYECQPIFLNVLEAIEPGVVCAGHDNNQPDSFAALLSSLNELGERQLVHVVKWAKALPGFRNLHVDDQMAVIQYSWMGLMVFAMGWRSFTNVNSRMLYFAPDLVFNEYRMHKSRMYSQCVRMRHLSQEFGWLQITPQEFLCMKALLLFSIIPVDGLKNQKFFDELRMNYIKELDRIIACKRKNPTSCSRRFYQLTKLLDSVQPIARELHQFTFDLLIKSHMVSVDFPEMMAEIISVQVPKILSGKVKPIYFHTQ
The experiment in a line: AR transcriptional output, ARE-luciferase assay in HEK 293T cells. The data set is classed as cell-based. The note with it: for antagonist or inverse agonist activity on AR transcriptional activity (in words): 10 μM, HEK 293T, FIG. 6A; for activity at 10 µM: HEK-293T, read-out: AR antagonist activity (% RLU). On the procedure:
100% is set to the activity with 200 μM testosterone, and 0% is set to the basal level (no ligand).
Cells were maintained in steroid free media, and stimulated with 200 μM testosterone, followed immediately by administration of exemplary compounds (Table 1, below). RLU is relative luciferase units, relative to DMSO control with 200 μM testosterone alone. Data represent an average of 3 independent experiments performed in triplicate wells per compounds at 10 μM.
Cells were maintained in steroid-free media, and stimulated with 200 μM testosterone, followed immediately by administration of a test compound. […] Compounds were dosed at 10 μM in FIGS. 6A and 6B.
Cells were maintained in steroid-free media, and stimulated with 200 μM testosterone, followed immediately by administration of a test compound.

The test system of another data set is LNCaP ARF876L. The experiment in a line: IncuCyte % confluence cell growth inhibition, LNCaP ARF876L. It is filed as cell-based. The note with it: Homo sapiens, AR-positive, AR mutation F876L, % cell growth inhibition relative to DMSO. On the procedure:
as §1

A further data set relates to LNCAP AR. The experiment in a line: IncuCyte % confluence cell growth inhibition, LNCAP AR. The data set is classed as cell-based. The note with it: read-out: IC50 values (μM), LNCAP AR. On the procedure:
as §1

Another data set has as its system LNCaP. The experiment in a line: IncuCyte % confluence cell growth inhibition, LNCaP. The data set is classed as cell-based. The note with it: Homo sapiens, read-out: IC50 values (μM), LNCaP. On the procedure:
as §1

A further data set concerns LAPC4. The experiment in a line: IncuCyte % confluence cell growth inhibition, LAPC4. The data set is classed as cell-based. To be noted: Homo sapiens, LAPC4, read-out: IC50 values (μM), LAPC4. On the procedure:
as §1

For another data set, the system named is PC3. The experiment in a line: IncuCyte % confluence cell growth inhibition, PC3. It is filed as cell-based. To be noted: Homo sapiens, PC-3, read-out: IC50 values (μM), PC3. On the procedure:
as §1

In data set [1] the test system is LAMP cells. The experiment in a line: RNA-seq / gene set enrichment and master TF expression in LAMP cells. The data set is classed as cell-based. On the procedure: FIG. 16A-B are a Gene Set Enrichment Analysis for AR gene pathways (FIG. 16A) and MYC gene pathways (FIG. 16B) in LAMP cells (LNCaP cells engineered with CRISPR to have amplification of the AR enhancer) treated with either 15n or dimethylsulfoxide (DMSO) for 48 hours, followed by RNA-seq.
FIG. 16A-B are Gene Set Enrichment Analyses for AR gene pathways (FIG. 16A) and MYC gene pathways ([…]) in LAMP cells (LNCaP cells engineered with CRISPR (clustered regularly interspaced short palindromic repeats) to have amplification of the AR enhancer) treated with either 15n or DMSO for 48 hours, followed by RNA-seq.
(§2) This AR dominated cluster 1 is often driven by amplification of the distal AR enhancer (Takeda et al., Cell, 2018, 174(2), 422-432).

The test system of another data set is LuCaP 167. The experiment in a line: LuCaP 167 prostate cancer PDX tumor growth. It is filed as in vivo, NSG male mice. To be noted: 10 mg/kg oral gavage, 5 days on 2 days off, LuCaP 167 PDX, FIG. 23. On the procedure:
LuCaP 167 is a well-characterized androgen sensitive prostate cancer (PCa) PDX model established at the University of Washington and has been validated using short tandem repeat (STR) analysis. All preclinical in vivo experiments were performed in accordance with NCI Animal Care and Use Committee approved protocol. Six-week-old NSGmale mice were housed in a sterile, pathogen-free facility and maintained in a temperature-controlled room under a 12-hour light/dark schedule with water and food ad libitum. All mice were operated under sedation with oxygen and isoflurane. Ibuprofen and/or buprenorphine was administered post-surgery. LuCaP 167 was implanted subcutaneously under the left flank of intact mice. When tumors reached an average volume of ˜500 mm^3, mice were randomized and placed in either control group or treatment groups (n=10/group). […] Tumor burden was assessed twice per week by caliper measurement of two diameters of the tumor (L×W=mm^2) and reported as tumor volume ((L×W^2)/2=mm^3). Body weights were assessed using a weighing scale and recorded in grams. At the end-of-treatment (EOT) timepoint, tumor tissues were excised, weighed, and snap frozen for further analysis.

Data set [2] deals with LAMP cells. The experiment in a line: Growth reduction kinetics in LAMP cells. It is filed as cell-based. The note with it: 15 μM and 30 μM, FIG. 20.
Description: as §2

Data set [3] deals with LAPC4 prostate cancer cells. The experiment in a line: LAPC4 mouse xenograft tumor volume. It is filed as in vivo, Mice. To be noted: oral gavage, LAPC4 mouse xenografts, day 17, FIG. 22. On the procedure:
FIG. 22 is a graph of tumor volume on day 17 as a percent change from the baseline.
Treatment was given once for 5 days followed by 2 days of rest. Tumor size was monitored by caliper twice weekly. Change from baseline tumor volume was calculated and reported as a waterfall plot. The in vivo activity is shown in FIG. 14, as measured by the percent change from the baseline.

Data set [4] is described as follows: Pharmacokinetics in non-tumor bearing BALB/C mice, IV and PO. The data set is classed as in vivo. To be noted: for AUClast—D / Cmax—D: dose-normalised; for AUC(0-t) / Cmax / Tmax / half-life: mouse, plasma. On the procedure: FIG. 14A-B are graphs of time (hours) versus plasma concentration (ng/mL) for intravenous (IV) (FIG. 14A) and oral (PO) (FIG. 14B) administration of 15a and 15n over 12 hours. Error bars represent the standard deviation in ng/mL from three independent mice per time point.
Clearance, Cmax, half life, dose/AUC, and bioavailability were calculated by statistical analysis using PHOENIX™ WINNONLIN™ v7.0 (Certara, Princeton, N.J.). The results are shown in FIGS. 14A and 14B and Table 4.

As for `CC1(C)C(=O)N(c2ccc(C#N)c(C(F)(F)F)c2)C(=O)N1Cc1ccc(-c2c[nH]nn2)cc1` [Compound 14a, 4-(3-(4-(1H-1,2,3-triazol-4-yl)benzyl)-4,4-dimethyl-2,5-dioxoimidazolidin-1-yl)-2-(trifluoromethyl)benzonitrile], the IC50 is 46.5 µM with 22Rv1; 84.1 µM with DU145; 65.4 µM in the data set on LNCaP ARin vivo; 35.9 µM in the data set with LNCaP ARF876L; 32.5 µM in the data set with LNCAP AR; 44.8 µM with LNCaP. Further, the values for the half-maximal inhibitory concentration (IC50) in the data set on LAPC4 and in the data set on PC3 were 70 µM and 68.5 µM, respectively. For the same compound, the “antagonist or inverse agonist activity on AR transcriptional activity (in words)” value on AR is on record as “reduced the transcriptional activity of the AR well below the expression in the absence of any steroids or ligands”. Further, the activity at 10 µM on AR was -64%.
For the compound `CC1(C)C(=O)N(c2cnc(C#N)c(C(F)(F)F)c2)C(=S)N1Cc1ccc(-c2c[nH]nn2)cc1` [Compound 15n], the ATF4 expression result in the data set on LAMP cells [1] (48 hours, FIG. 19) was “greatly reduced”. In the data set on LAMP cells [1] (48 hours, versus DMSO, RNA-seq), the “AR target gene set (Gene Set Enrichment Analysis)” value is reported as “down regulated” and the “MYC target gene set (Gene Set Enrichment Analysis)” value is “down regulated”. Moreover, in the data set on LAMP cells [1] (compared with enzalutamide), the “ATF4 driven amino-acid tRNA synthesis pathway” value is “able to also downregulate”. Besides, the “anti-tumor effect (average tumor growth rate)” value with LuCaP 167 is “superior anti-tumor effect over enzalutamide”. The “cell killing compared with enzalutamide” value with LAMP cells [2] was “superior cell killing at lower doses than enzalutamide”. Besides, the “tumor burden (percent change from baseline tumor volume)” value in [3] is recorded as “retained its ability to reduce tumor burden”. Moreover, in data set [4] (IV, 1 mg/kg), the “AUClast—D” value came to 6255.85 kg·ng·h/mL/mg, the “Cmax—D” value is 936.94 kg·ng/mL/mg, the AUC(0-t) turned out to be 6260 ng·h/mL and the highest level (Cmax) was 937 ng/mL. In addition, in data set [4] (IV, 1 mg/kg), the Tmax was 0.5 h and the half-life is 9.13 h. In data set [4] (PO, 20 mg/kg), the “AUClast—D” value amounted to 4866.48 kg·ng·h/mL/mg, the “Cmax—D” value is 549.09 kg·ng/mL/mg, the AUC(0-t) turned out to be 97300 ng·h/mL and the Cmax came out at 11000 ng/mL. For the same compound, in data set [4] (PO, 20 mg/kg), the Tmax came out at 1 h and the half-life was 22.3 h.
As to `CC1(C)C(=O)N(c2ccc(C#N)c(C(F)(F)F)c2)C(=S)N1c1ccc(-c2c[nH]nn2)cc1` [Compound 16a, 4-(3-(4-(1H-1,2,3-triazol-4-yl)phenyl)-4,4-dimethyl-5-oxo-2-thioxoimidazolidin-1-yl)-2-(trifluoromethyl)benzonitrile], the 50% inhibitory concentration (IC50) in the data set with 22Rv1 was 20.7 µM; with DU145, 39.9 µM; in the data set with LNCaP ARin vivo it was 33.6 µM; in the data set with LNCaP ARF876L, 30.2 µM; with LNCAP AR it was 21.2 µM; in the data set on LNCaP, 17.1 µM. Moreover, the figures for the IC50 in the data set with LAPC4 and in the data set on PC3 were 17.3 µM and 49.2 µM, respectively. For the same compound, the “antagonist or inverse agonist activity on AR transcriptional activity (in words)” value at AR is given as “reduced the transcriptional activity of the AR well below the expression in the absence of any steroids or ligands”. The activity at 10 µM on AR is -22%.
In the case of `CC1(C)C(=O)N(c2ccc(C#N)c(C(F)(F)F)c2)C(=S)N1Cc1ccc(-c2c[nH]nn2)c(F)c1` [Compound 19c, 4-(3-(3-Fluoro-4-(1H-1,2,3-triazol-4-yl)benzyl)-4,4-dimethyl-5-oxo-2-thioxoimidazolidin-1-yl)-2-(trifluoromethyl)benzonitrile], the IC50 in the data set with 22Rv1 stood at 25.3 µM; with DU145, 114 µM; in the data set with LNCaP ARin vivo, 34 µM; with LNCaP ARF876L, 33.9 µM; in the data set on LNCAP AR, 28 µM; in the data set with LNCaP it was 36.2 µM. In addition, the IC50 in the data set with LAPC4 was 17.9 µM; with PC3, 59.9 µM.

The term IC50 denotes the concentration needed to halve the response being measured. One may read the AUC(0-t) as the area under the concentration-time curve up to a stated or last time point. As a reminder, the Cmax is the maximum level reached in the sampled fluid or tissue. A word on the Tmax: it is the time from dosing to the highest level. Usually half-life stands for the time needed for the level to fall by half in the phase considered.

The values are drawn from patent publication US20230135524A1, “ARYL HYDANTOIN HETEROCYCLES AND METHODS OF USE” (The United States of America,as represented by the …, priority 2020, published 2023).
